What was measured:
[1] = test system: antibodies in sera of individuals which have been and/or are infected by SARS-CoV (SARS-green, SARS-yellow, 1a, 1b, 2, 6, 37, 62, London); assay type: binding, human
[2] = test system: antibodies in control sera (pooled serum of 10 healthy LUMC hospital workers; commercial negative donor pooled serum); assay type: binding, human

## VLYENQKQIANQFNKAISQIQ [SEQ ID NO:1245]
[1]
  recognition by sera of SARS-CoV infected individuals (domains homologous with OC43 spike): recognition by sera derived from individuals which have been and/or are still infected by SARS-CoV
[2]
  recognition by control sera (domains homologous with OC43 spike): recognition by control sera derived from individuals which have not been infected by SARS-CoV

## KPTKRSFIEDLLF [SEQ ID NO:1244]
[1]
  recognition by sera of SARS-CoV infected individuals (domains homologous with OC43 spike): recognition by sera derived from individuals which have been and/or are still infected by SARS-CoV
[2]
  recognition by control sera (domains homologous with OC43 spike): recognition by control sera derived from individuals which have not been infected by SARS-CoV

Reference: patent US20060110803A1 (Crucell Holland B.V., priority 2003, published 2006)
